Data taken from PubChem BioAssay AID248 (DTP/NCI, 2004).
Values joined by “and” are separate entries in the source; they are usually repeats but may differ in a detail not shown here. Equal values may be shown once. Inconclusive results and toxic doses are left out. Cut-off read from the data, not from the text of the source: active = T/C of 150% or more; inactive = T/C below 125%.

System: L1210 leukemia ip in BDF1 mice, survival T/C
Assay: NCI In Vivo Anticancer Drug Screen. Data for tumor model L1210 Leukemia (intraperitoneal) in B6D2F1 (BDF1) mice
Details: endpoint: mean survival time, higher = longer survival
Summary of the method: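 Tumor was transplanted into mice, which were then dosed with test compound or vehicle alone. Survival was recorded for each group, and the treated figure was expressed relative to the control figure.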

[1] = dose: 100.0 mg/kg/injection, schedule: Q01DX001 (ip), vehicle: saline
[2] = dose: 200.0 mg/kg/injection, schedule: Q01DX001 (ip), vehicle: saline
[3] = dose: 400.0 mg/kg/injection, schedule: Q01DX001 (ip), vehicle: saline
[4] = dose: 100.0 mg/kg/injection, schedule: Q01DX001 (ip), vehicle: carboxymethylcellulose (CMC)
[5] = dose: 200.0 mg/kg/injection, schedule: Q01DX001 (ip), vehicle: carboxymethylcellulose (CMC)
[6] = dose: 400.0 mg/kg/injection, schedule: Q01DX001 (ip), vehicle: carboxymethylcellulose (CMC)
[7] = dose: 25.0 mg/kg/injection, schedule: Q01DX009 (ip), vehicle: saline
[8] = dose: 50.0 mg/kg/injection, schedule: Q01DX009 (ip), vehicle: saline
[9] = dose: 75.0 mg/kg/injection, schedule: Q01DX001 (ip), vehicle: carboxymethylcellulose (CMC)
[10] = dose: 100.0 mg/kg/injection, schedule: Q04DX003 (ip), vehicle: Klucel (hydroxypropylcellulose) (HPC)
[11] = dose: 200.0 mg/kg/injection, schedule: Q04DX003 (ip), vehicle: Klucel (hydroxypropylcellulose) (HPC)
[12] = dose: 400.0 mg/kg/injection, schedule: Q04DX003 (ip), vehicle: Klucel (hydroxypropylcellulose) (HPC)

Measured: T/C

O=C(CC1CC2CCC1C2)Nc1ccccc1 (configuration not stated)
inactive: [1] 96 % of control | [2] 111 % of control | [3] 100 % of control

O=C(c1ccccc1)c1ccc(C2CCCCC2)cc1
inactive: dose: 50.0 mg/kg/injection, schedule: Q01DX001 (ip), vehicle: carboxymethylcellulose (CMC) 98 % of control | [4] 104 % of control | [5] 98 % of control | [6] 100 % of control

N#Cc1ccc(C(CCCCC(Cc2ccccc2)c2ccc(C#N)cc2)Cc2ccccc2)cc1 (configuration not stated)
inactive: dose: 50.0 mg/kg/injection, schedule: Q01DX001 (ip), vehicle: saline 93 % of control | [2] 102 % of control | [3] 104 % of control

COc1ccc2c(ccc[n+]2C)c1
inactive: dose: 11.0 mg/kg/injection, schedule: Q01DX009 (ip), vehicle: saline 103 % of control | dose: 12.5 mg/kg/injection, schedule: Q01DX009 (ip), vehicle: saline 102 % of control | dose: 12.5 mg/kg/injection, schedule: Q04DX003 (ip), vehicle: saline with Tween-80 96 % of control | dose: 16.5 mg/kg/injection, schedule: Q01DX009 (ip), vehicle: saline 117 % of control | [7] 109 % of control and 110 % of control | dose: 25.0 mg/kg/injection, schedule: Q04DX003 (ip), vehicle: saline with Tween-80 102 % of control | dose: 33.0 mg/kg/injection, schedule: Q01DX009 (ip), vehicle: saline 113 % of control | dose: 37.5 mg/kg/injection, schedule: Q01DX009 (ip), vehicle: saline 115 % of control | [8] 115 % of control and 87 % of control | dose: 50.0 mg/kg/injection, schedule: Q04DX003 (ip), vehicle: saline with Tween-80 100 % of control | [9] 108 % of control

Cc1ccc(N=NN(C)CC#N)cc1
inactive: dose: 25.0 mg/kg/injection, schedule: Q04DX003 (ip), vehicle: other 96 % of control | dose: 50.0 mg/kg/injection, schedule: Q04DX003 (ip), vehicle: other 96 % of control | dose: 100.0 mg/kg/injection, schedule: Q04DX003 (ip), vehicle: other 93 % of control and 105 % of control

COc1ccc(/C(C)=N\OC(=O)N(C)C)c(OC)c1
inactive: [4] 100 % of control | [5] 100 % of control | [6] 103 % of control

C/C(C/C=N/N=C(N)N)=N\N=C(N)N
inactive: dose: 15.0 mg/kg/injection, schedule: Q01DX Z (ip), vehicle: water 98 % of control | dose: 30.0 mg/kg/injection, schedule: Q01DX Z (ip), vehicle: water 96 % of control | dose: 60.0 mg/kg/injection, schedule: Q01DX Z (ip), vehicle: water 102 % of control | dose: 120.0 mg/kg/injection, schedule: Q01DX Z (ip), vehicle: water 102 % of control | dose: 120.0 mg/kg/injection, schedule: Q01DX Z (oral), vehicle: water 103 % of control | dose: 240.0 mg/kg/injection, schedule: Q01DX Z (oral), vehicle: water 100 % of control | dose: 480.0 mg/kg/injection, schedule: Q01DX Z (oral), vehicle: water 108 % of control | dose: 960.0 mg/kg/injection, schedule: Q01DX Z (oral), vehicle: water 102 % of control

Cc1cc(Br)c(I)c([N+](=O)[O-])c1
inactive: dose: 37.5 mg/kg/injection, schedule: Q04DX003 (ip), vehicle: saline with Tween-80 104 % of control | dose: 75.0 mg/kg/injection, schedule: Q04DX003 (ip), vehicle: saline with Tween-80 95 % of control | dose: 150.0 mg/kg/injection, schedule: Q04DX003 (ip), vehicle: saline with Tween-80 102 % of control

COC(=O)C(CCCN(C)C)(CCCN(C)C)c1cccc2ccccc12
inactive: dose: 100.0 mg/kg/injection, schedule: Q04DX003 (ip), vehicle: saline with Tween-80 96 % of control

C=CCNc1ccnc(SCc2ccccc2)n1
inactive: dose: 100.0 mg/kg/injection, schedule: Q01DX009 (ip), vehicle: gum acacia 93 % of control | dose: 100.0 mg/kg/injection, schedule: Q04DX003 (ip), vehicle: gum acacia 97 % of control | dose: 200.0 mg/kg/injection, schedule: Q01DX009 (ip), vehicle: gum acacia 110 % of control | dose: 200.0 mg/kg/injection, schedule: Q04DX003 (ip), vehicle: gum acacia 97 % of control | dose: 400.0 mg/kg/injection, schedule: Q01DX009 (ip), vehicle: gum acacia 97 % of control | dose: 400.0 mg/kg/injection, schedule: Q04DX003 (ip), vehicle: gum acacia 92 % of control

O=C(CBr)Nc1ccccc1S(=O)(=O)F
inactive: dose: 4.68 mg/kg/injection, schedule: Q01DX009 (ip), vehicle: carboxymethylcellulose (CMC) 91 % of control | dose: 9.37 mg/kg/injection, schedule: Q01DX009 (ip), vehicle: carboxymethylcellulose (CMC) 91 % of control | dose: 18.75 mg/kg/injection, schedule: Q01DX009 (ip), vehicle: carboxymethylcellulose (CMC) 94 % of control | dose: 18.75 mg/kg/injection, schedule: Q04DX003 (ip), vehicle: carboxymethylcellulose (CMC) 102 % of control | dose: 37.5 mg/kg/injection, schedule: Q04DX003 (ip), vehicle: carboxymethylcellulose (CMC) 102 % of control | [9] 96 % of control

Nc1ccc2ccc3ccc4ccccc4c3c2c1
inactive: dose: 100.0 mg/kg/injection, schedule: Q01DX001 (ip), vehicle: Klucel (hydroxypropylcellulose) (HPC) 97 % of control | [10] 104 % of control | dose: 200.0 mg/kg/injection, schedule: Q01DX001 (ip), vehicle: Klucel (hydroxypropylcellulose) (HPC) 103 % of control | [11] 113 % of control | dose: 400.0 mg/kg/injection, schedule: Q01DX001 (ip), vehicle: Klucel (hydroxypropylcellulose) (HPC) 100 % of control | [12] 90 % of control

O=C(NCCBr)NC1CC1c1ccccc1 (configuration not stated)
inactive: dose: 20.0 mg/kg/injection, schedule: Q04DX003 (ip), vehicle: Klucel (hydroxypropylcellulose) (HPC) 117 % of control | dose: 40.0 mg/kg/injection, schedule: Q04DX003 (ip), vehicle: Klucel (hydroxypropylcellulose) (HPC) 101 % of control | dose: 80.0 mg/kg/injection, schedule: Q04DX003 (ip), vehicle: Klucel (hydroxypropylcellulose) (HPC) 93 % of control | [10] 118 % of control

CSC1=NCCCC1
inactive: dose: 75.0 mg/kg/injection, schedule: Q01DX001 (ip), vehicle: saline 105 % of control | dose: 150.0 mg/kg/injection, schedule: Q01DX001 (ip), vehicle: saline 104 % of control

C#CCOCC1CN(C)C(=O)O1 (configuration not stated)
inactive: [7] 90 % of control | [8] 110 % of control | dose: 50.0 mg/kg/injection, schedule: Q04DX003 (ip), vehicle: saline 103 % of control | dose: 100.0 mg/kg/injection, schedule: Q01DX009 (ip), vehicle: saline 100 % of control | dose: 100.0 mg/kg/injection, schedule: Q04DX003 (ip), vehicle: saline 106 % of control | dose: 200.0 mg/kg/injection, schedule: Q01DX009 (ip), vehicle: saline 117 % of control | dose: 200.0 mg/kg/injection, schedule: Q04DX003 (ip), vehicle: saline 103 % of control | dose: 400.0 mg/kg/injection, schedule: Q01DX009 (ip), vehicle: saline 100 % of control | dose: 400.0 mg/kg/injection, schedule: Q04DX003 (ip), vehicle: saline 92 % of control

COC(=O)CC(c1ccc(OC)cc1)C(CC(=O)OC)c1ccc(OC)cc1 (configuration not stated)
inactive: [10] 98 % of control | [11] 93 % of control | [12] 104 % of control

OCCCCN1CCCCC1
inactive: [1] 106 % of control | [2] 101 % of control
